The values that follow come from patent US8822517B2, “Arylosulfonamides for the treatment of CNS diseases” (Adamed SP. Z O.O., priority 2010, dated 2014).

The target in assay [1] is T1, serotoninergic 5-HT2A receptor (Homo sapiens, UniProt P28223). Nature of the assay: Binding assay 5-HT2A (h), [3H]ketanserin, HEK-293 cells. More on the design: expressed in transfected cells; host or cells: HEK-293 cells. The following applies: read-out: 5-HT2A. The method, boiled down: (§1)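 Specific ligand binding was taken as total minus non-specific binding, with the latter defined in the presence of surplus unlabelled ligand. Each compound was tested at a single 1×10^−6 M concentration.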

The target of assay [2] is T1, serotoninergic 5-HT2A receptor. In words: Cellular functional assay, serotoninergic 5-HT2A receptor (agonism/antagonism). The assay is classed as cell-based. The following applies: for activation at 1 µM: read-out: 5-HT2A -ag [%]; for inhibition at 1 µM: read-out: 5-HT2A -antag [%]. The method in brief: (§2)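 Human receptors tested in cell-based functional format for both agonist and antagonist modes. Single compound concentration of 1×10^−6M.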

Assay [3] addresses T2, adrenergic α2C receptor (Homo sapiens, UniProt P18825).
T2 sequence (P18825 1-462): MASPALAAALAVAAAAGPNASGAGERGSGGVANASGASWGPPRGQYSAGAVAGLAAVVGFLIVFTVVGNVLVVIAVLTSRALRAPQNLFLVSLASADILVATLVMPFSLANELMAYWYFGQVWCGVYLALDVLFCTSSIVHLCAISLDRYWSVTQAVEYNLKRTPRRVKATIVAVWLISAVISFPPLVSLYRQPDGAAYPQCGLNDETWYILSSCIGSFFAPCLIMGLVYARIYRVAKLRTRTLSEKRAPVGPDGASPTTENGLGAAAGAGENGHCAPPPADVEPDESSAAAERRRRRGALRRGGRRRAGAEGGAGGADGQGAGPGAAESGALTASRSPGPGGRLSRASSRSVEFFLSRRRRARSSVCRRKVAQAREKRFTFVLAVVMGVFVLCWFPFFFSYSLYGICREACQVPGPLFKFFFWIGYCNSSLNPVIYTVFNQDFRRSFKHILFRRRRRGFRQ
Nature of the assay: Binding assay α2C (h), [3H]RX 821002, CHO cells. Also noted: expressed in transfected cells; host or cells: CHO cells. The following applies: read-out: α2C [%]. The method in brief: as §1

A further assay has as its target dopaminergic D3 receptor (Homo sapiens, UniProt P35462). Nature of the assay: Cellular functional assay, dopaminergic D3 receptor (agonism/antagonism). Type of assay: cell-based. The following applies: for inhibition at 1 µM: CHO, read-out: D3-antag. [%]; for activation at 1 µM: agonist effect, percent of control specific agonist response (300 nM dopamine for control), 1×10^−6 M, D3 (h), CHO cells, read-out: D3-ag [%]. On the procedure:
(§3) The compounds were tested at the concentration of 1×10^−6M.
(§4) In the Tables ag refers to agonism, and antag to antagonism).

Assay [4] addresses serotoninergic 5-HT7 receptor (Homo sapiens, UniProt P34969). Nature of the assay: Cellular functional assay, serotoninergic 5-HT7 receptor (agonism/antagonism). The assay is classed as cell-based. The following applies: for activation at 1 µM: agonist effect, percent of control specific agonist response, compounds tested at 1×10^−6M, read-out: 5-HT7-ag [%]; for inhibition at 1 µM: read-out: 5-HT7-antag. [%]. On the procedure: as §3, §4

In assay [5] the target is T2, adrenergic α2C receptor. In words: Cellular functional assay, adrenergic α2C receptor (agonism/antagonism). Type of assay: cell-based. Particulars: for activation at 1 µM: agonist effect, percent of control specific agonist response, compounds tested at 1×10^−6M, read-out: α2C −ag [%]; for inhibition at 1 µM: read-out: α2C −antag. [%]. How it is done:
as §3, §4

The target of assay [6] is histaminergic H1 receptor (Homo sapiens, UniProt P35367). Nature of the assay: Cellular functional assay, histaminergic H1 receptor (agonism/antagonism). The assay is classed as cell-based. Particulars: for activation at 1 µM: agonist effect, percent of control specific agonist response, compounds tested at 1×10^−6M, read-out: H1 -ag [%]; for inhibition at 1 µM: read-out: H1 -antag. [%]. How it is done: as §3, §4

The target of another assay is T3, muscarinic M3 receptor (Homo sapiens, UniProt P20309).
T3 construct: expressed in transfected cells; host or cells: CHO cells
In words: Binding assay M3 (h), [3H]4-DAMP, CHO cells. Particulars: read-out: M3 [%]. The method in brief:
as §1

The target in assay [7] is T4, dopaminergic D2 receptor (Homo sapiens, UniProt P14416). Nature of the assay: Binding assay D2S (h), [3H]methyl-spiperone, HEK-293 cells. Particulars: read-out: D2 [%]. More on the design: expressed in transfected cells; host or cells: HEK-293 cells. The method, boiled down:
as §1
Target sequence in this assay (P14416 1-414 isoform P14416-2): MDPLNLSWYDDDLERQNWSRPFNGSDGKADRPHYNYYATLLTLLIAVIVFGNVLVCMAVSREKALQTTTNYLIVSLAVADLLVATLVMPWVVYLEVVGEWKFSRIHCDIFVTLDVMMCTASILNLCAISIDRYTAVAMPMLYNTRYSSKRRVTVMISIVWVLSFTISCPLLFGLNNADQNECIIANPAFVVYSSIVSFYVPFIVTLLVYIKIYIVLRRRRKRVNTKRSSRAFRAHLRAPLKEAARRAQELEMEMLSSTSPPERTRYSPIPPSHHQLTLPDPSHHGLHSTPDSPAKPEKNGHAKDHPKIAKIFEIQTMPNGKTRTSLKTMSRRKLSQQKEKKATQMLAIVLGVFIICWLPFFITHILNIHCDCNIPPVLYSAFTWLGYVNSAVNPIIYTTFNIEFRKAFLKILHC

Assay [8] has as its target serotoninergic 5-HT6 receptor (Homo sapiens, UniProt P50406). In words: Cellular functional assay, serotoninergic 5-HT6 receptor (agonism/antagonism). The assay is classed as cell-based. The following applies: for activation at 1 µM: agonist effect, percent of control specific agonist response, compounds tested at 1×10^−6M, read-out: 5-HT6-ag [%]; for inhibition at 1 µM: read-out: 5-HT6-antag. [%]. On the procedure: as §3, §4

Another assay concerns the target T5, adrenergic α1A receptor (Homo sapiens, UniProt P35348).
T5 sequence (P35348 1-466): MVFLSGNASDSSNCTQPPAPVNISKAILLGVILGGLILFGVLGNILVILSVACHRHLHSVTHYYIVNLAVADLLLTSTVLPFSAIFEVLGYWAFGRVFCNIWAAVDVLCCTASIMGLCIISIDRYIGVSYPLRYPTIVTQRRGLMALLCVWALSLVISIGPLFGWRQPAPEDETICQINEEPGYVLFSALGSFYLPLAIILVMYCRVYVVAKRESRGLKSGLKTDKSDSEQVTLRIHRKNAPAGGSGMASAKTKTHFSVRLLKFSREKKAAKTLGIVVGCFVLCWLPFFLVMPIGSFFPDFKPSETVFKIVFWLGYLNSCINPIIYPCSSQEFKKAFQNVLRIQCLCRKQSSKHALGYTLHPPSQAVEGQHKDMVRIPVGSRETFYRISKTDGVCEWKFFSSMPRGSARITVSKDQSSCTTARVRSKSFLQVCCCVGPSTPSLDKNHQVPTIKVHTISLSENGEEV
In words: Cellular functional assay, adrenergic α1A receptor (agonism/antagonism). The assay is classed as cell-based. Particulars: for activation at 1 µM: agonist effect, percent of control specific agonist response, compounds tested at 1×10^−6M, read-out: α1A -ag [%]; for inhibition at 1 µM: read-out: α1A -antag. [%]. The method, boiled down:
as §2

Assay [9] deals with T6, serotonine transporter (SERT) receptor (Homo sapiens, UniProt P31645).
T6 construct: expressed in transfected cells; host or cells: CHO cells
In words: Binding assay SERT (h), [3H]imipramine, CHO cells. Particulars: read-out: SERT [%]. The method, boiled down: as §1

Assay [10] addresses T4, dopaminergic D2 receptor. In words: Cellular functional assay, dopaminergic D2 receptor (agonism/antagonism). The assay is classed as cell-based. Particulars: HEK293; for activation at 1 µM: agonist effect, percent of control specific agonist response (3 μM dopamine for control), 1×10^−6 M, D2S (h), HEK-293 cells, read-out: D2-ag [%]; for inhibition at 1 µM: read-out: D2-antag. [%]. How it is done: as §3, §4
Target sequence in this assay (P14416 whole entry): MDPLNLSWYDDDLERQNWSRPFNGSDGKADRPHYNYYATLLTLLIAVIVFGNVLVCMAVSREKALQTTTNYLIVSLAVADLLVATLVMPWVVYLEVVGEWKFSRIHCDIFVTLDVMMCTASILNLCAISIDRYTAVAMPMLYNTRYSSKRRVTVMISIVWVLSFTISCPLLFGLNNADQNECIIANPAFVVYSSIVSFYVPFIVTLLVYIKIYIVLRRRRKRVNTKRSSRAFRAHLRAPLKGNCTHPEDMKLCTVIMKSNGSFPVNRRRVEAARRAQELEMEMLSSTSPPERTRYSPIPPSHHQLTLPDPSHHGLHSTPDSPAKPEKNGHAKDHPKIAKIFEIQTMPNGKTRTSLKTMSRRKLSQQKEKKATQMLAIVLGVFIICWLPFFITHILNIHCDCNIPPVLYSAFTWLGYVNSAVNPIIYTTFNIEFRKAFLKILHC

serotoninergic 5-HT6 receptor, sequence (P50406 whole entry): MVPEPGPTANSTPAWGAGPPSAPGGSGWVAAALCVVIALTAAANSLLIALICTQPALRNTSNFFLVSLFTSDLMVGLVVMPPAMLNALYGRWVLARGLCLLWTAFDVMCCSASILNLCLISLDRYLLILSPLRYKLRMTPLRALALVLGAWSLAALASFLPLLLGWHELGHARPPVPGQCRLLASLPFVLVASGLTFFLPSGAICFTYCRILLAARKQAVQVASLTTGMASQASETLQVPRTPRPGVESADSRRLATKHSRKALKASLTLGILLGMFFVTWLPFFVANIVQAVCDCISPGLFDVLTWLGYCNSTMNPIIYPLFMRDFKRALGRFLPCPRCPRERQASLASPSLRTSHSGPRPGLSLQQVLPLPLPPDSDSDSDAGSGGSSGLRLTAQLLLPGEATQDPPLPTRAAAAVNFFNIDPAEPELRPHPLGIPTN
T6 sequence (P31645 whole entry): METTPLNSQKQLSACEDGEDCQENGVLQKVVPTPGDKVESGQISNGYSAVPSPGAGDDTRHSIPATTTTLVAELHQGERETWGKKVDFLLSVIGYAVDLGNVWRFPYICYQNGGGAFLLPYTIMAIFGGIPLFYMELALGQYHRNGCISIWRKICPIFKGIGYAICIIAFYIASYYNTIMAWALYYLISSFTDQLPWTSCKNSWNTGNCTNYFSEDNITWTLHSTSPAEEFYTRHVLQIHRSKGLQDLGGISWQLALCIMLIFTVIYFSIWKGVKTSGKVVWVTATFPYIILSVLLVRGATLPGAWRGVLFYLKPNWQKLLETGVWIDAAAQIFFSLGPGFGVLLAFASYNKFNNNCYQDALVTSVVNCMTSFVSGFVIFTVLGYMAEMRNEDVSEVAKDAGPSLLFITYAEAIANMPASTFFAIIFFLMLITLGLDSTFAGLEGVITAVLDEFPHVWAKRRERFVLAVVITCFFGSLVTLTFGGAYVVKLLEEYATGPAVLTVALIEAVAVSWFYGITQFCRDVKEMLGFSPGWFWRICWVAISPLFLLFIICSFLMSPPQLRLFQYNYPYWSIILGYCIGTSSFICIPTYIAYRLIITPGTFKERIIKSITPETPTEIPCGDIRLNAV
T1 sequence (P28223 whole entry): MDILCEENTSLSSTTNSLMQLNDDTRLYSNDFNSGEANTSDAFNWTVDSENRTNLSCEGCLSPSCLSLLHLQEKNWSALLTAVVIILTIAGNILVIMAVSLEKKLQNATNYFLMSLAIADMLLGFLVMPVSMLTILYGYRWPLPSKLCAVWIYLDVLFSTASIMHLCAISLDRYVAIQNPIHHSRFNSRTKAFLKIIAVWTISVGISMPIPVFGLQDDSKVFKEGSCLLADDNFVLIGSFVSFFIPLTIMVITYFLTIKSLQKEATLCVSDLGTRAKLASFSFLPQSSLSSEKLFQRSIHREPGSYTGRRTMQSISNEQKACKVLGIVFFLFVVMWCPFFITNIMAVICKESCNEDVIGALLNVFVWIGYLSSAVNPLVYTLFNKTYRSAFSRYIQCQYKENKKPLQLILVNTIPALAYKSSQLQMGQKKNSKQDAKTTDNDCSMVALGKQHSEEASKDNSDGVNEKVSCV
serotoninergic 5-HT7 receptor, sequence (P34969 whole entry): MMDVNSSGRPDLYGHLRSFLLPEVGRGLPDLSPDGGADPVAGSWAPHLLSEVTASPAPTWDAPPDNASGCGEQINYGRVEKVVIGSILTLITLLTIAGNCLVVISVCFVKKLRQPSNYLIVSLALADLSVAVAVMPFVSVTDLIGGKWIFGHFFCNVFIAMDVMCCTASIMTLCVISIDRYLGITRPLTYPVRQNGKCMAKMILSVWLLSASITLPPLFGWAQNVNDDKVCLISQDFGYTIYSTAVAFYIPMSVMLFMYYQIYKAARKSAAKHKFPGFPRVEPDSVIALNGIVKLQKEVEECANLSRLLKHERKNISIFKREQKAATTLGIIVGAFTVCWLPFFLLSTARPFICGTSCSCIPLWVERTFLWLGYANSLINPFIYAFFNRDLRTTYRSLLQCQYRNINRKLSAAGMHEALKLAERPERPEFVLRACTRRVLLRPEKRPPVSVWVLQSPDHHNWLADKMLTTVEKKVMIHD
dopaminergic D3 receptor, sequence (P35462 whole entry): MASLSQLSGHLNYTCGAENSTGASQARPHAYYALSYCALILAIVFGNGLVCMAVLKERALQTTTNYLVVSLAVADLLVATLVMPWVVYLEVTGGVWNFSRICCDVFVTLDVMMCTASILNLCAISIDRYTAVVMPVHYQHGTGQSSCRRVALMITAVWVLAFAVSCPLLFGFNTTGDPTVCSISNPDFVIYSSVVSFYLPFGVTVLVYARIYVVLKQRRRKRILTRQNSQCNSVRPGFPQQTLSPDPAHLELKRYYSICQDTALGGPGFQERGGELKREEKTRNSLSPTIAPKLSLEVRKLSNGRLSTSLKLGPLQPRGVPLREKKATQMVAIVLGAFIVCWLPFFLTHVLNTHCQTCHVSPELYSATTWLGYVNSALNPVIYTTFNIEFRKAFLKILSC
histaminergic H1 receptor, sequence (P35367 whole entry): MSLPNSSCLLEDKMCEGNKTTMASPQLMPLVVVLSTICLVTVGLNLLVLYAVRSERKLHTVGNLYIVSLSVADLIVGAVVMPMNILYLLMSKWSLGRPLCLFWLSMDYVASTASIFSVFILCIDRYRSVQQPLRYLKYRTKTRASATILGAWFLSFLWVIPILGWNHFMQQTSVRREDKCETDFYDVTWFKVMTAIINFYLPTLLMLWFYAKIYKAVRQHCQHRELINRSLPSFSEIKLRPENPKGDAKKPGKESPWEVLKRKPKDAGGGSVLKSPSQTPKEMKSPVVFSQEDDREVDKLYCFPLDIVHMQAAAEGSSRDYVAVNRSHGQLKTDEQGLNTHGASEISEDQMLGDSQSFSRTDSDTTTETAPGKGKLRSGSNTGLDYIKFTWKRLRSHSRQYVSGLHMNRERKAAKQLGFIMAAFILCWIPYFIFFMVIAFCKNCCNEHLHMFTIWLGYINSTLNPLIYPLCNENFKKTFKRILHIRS
T3 sequence (P20309 whole entry): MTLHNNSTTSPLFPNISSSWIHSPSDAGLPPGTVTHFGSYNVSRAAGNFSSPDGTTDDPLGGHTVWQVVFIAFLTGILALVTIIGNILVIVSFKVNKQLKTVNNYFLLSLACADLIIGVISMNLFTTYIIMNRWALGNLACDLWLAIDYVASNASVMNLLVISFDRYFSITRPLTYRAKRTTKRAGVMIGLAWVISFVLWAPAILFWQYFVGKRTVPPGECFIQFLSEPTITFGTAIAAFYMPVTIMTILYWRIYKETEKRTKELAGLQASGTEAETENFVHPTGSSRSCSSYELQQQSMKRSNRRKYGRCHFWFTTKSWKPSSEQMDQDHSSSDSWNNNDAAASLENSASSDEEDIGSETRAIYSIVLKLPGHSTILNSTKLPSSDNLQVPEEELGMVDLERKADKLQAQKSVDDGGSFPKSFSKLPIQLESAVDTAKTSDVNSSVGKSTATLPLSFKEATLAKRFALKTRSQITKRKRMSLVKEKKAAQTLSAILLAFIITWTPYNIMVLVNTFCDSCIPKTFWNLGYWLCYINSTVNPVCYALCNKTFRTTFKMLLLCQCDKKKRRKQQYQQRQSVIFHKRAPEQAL

Take `O=S(=O)(NCCCN1CCC(c2noc3cc(F)ccc23)CC1)c1ccc2cn[nH]c2c1` [Compound 352, N-[3-[4-(6-Fluoro-1,2-benzoxazol-3-yl)piperidin-1-yl]propyl]-1H-indazole-6-sulphonamide]: the inhibition at 1 µM worked out at 101% in assay [1]; 100% in assay [2]; 100% on adrenergic α2C receptor [3]; 113% on dopaminergic D3 receptor; 102% in [4]; 16% on adrenergic α2C receptor [5]. For the same compound, the inhibition at 1 µM was determined as 60% in assay [6]; 12% on muscarinic M3 receptor; 100% at dopaminergic D2 receptor [7]; 75% in assay [8]; 100% at adrenergic α1A receptor; 56% in assay [9]. Besides, the inhibition at 1 µM on dopaminergic D2 receptor [10] worked out at 88%. Besides, the activation at 1 µM in assay [2] is -1%; on dopaminergic D3 receptor, -18%; in assay [4] it was -2%; on adrenergic α2C receptor [5] it was -16%; in [6] it was 1%; in [8], -2%. Also, the activation at 1 µM on adrenergic α1A receptor worked out at 1%; on dopaminergic D2 receptor [10] it was 12%.

Take `O=S(=O)(NCCCCN1CCC(c2noc3cc(F)ccc23)CC1)c1csc2ccccc12` [Compound 313, N-[4-[4-(6-Fluoro-1,2-benzoxazol-3-yl)piperidin-1-yl]butyl]benzothiophene-3-sulphonamide]: the inhibition at 1 µM in assay [1] came out at 101%; in assay [2] it was 98%; on adrenergic α2C receptor [3], 100%; on dopaminergic D3 receptor, 81%; in assay [4] it was 100%; on adrenergic α2C receptor [5] it was 46%. In addition, the inhibition at 1 µM in [6] is 47%; at muscarinic M3 receptor it was 25%; at dopaminergic D2 receptor [7], 101%; in assay [8], 91%; at adrenergic α1A receptor, 100%; in assay [9] it was 23%. Moreover, the inhibition at 1 µM on dopaminergic D2 receptor [10] worked out at 85%. The activation at 1 µM in assay [2] is -3%; at dopaminergic D3 receptor, 8%; in assay [4], -2%; on adrenergic α2C receptor [5], -11%; in assay [6], 4%; in assay [8], -3%. Further, the activation at 1 µM on adrenergic α1A receptor was 0%; at dopaminergic D2 receptor [10] it was -5%.

On to `O=S(=O)(NCCCCN1CCN(c2noc3ccccc23)CC1)c1cc2ccc(Cl)cc2s1` [Compound 288, N-[4-[4-(1,2-Benzoxazol-3-yl)piperazin-1-yl]butyl]-6-chlorobenzothiophene-2-sulphonamide], for which the inhibition at 1 µM was 95% in [1]; 97% in assay [2]; 109% on adrenergic α2C receptor [3]; 72% on dopaminergic D3 receptor; 92% in [4]; 13% at adrenergic α2C receptor [5]. Further, the inhibition at 1 µM in assay [6] was 57%; on muscarinic M3 receptor, 3%; on dopaminergic D2 receptor [7], 103%; in assay [8], 74%; on adrenergic α1A receptor it was 97%; in assay [9], -14%. Moreover, the inhibition at 1 µM at dopaminergic D2 receptor [10] was determined as 79%. The activation at 1 µM in assay [2] was -2%; at dopaminergic D3 receptor, 0%; in assay [4], -2%; at adrenergic α2C receptor [5], 1%; in assay [6] it was 0%; in assay [8], 0%. The results for the activation at 1 µM on adrenergic α1A receptor and on dopaminergic D2 receptor [10] were 0% and 5%, respectively.

With `O=S(=O)(NCCCCN1CCN(c2nsc3ccccc23)CC1)c1cc2ccccc2s1` [Compound 239, N-[4-[4-(1,2-Benzothiazol-3-yl)piperazin-1-yl]butyl]benzothiophene-2-sulphonamide], the inhibition at 1 µM in assay [1] is 101%; in assay [2], 94%; at adrenergic α2C receptor [3], 105%; on dopaminergic D3 receptor, 84%; in assay [4] it was 81%; at adrenergic α2C receptor [5] it was 33%. For the same compound, the inhibition at 1 µM is 54% in [6]; 9% at muscarinic M3 receptor; 102% at dopaminergic D2 receptor [7]; 70% in assay [8]; 100% on adrenergic α1A receptor; 64% in assay [9]. Besides, on dopaminergic D2 receptor [10], the inhibition at 1 µM is 84%. The activation at 1 µM in assay [2] was -2%; at dopaminergic D3 receptor, 6%; in assay [4], -2%; at adrenergic α2C receptor [5], 3%; in assay [6] it was 0%; in [8], 0%. The activation at 1 µM was -1% on adrenergic α1A receptor and 13% at dopaminergic D2 receptor [10].
